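Where inhibition never reached the appropriate level, the endpoint shown equals the highest concentration tested. Otherwise, values were interpolated linearly from a five-concentration, 48-hour dose response in 96-well plates. TGI marks complete inhibition of growth.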
What was measured:
Test in all cases: inhibition of tumour cell growth, NCI panel, 48 h
[1] = system: HT29 colon
[2] = system: MDA-N
[3] = system: UACC-257 melanoma
[4] = system: SW-620 colon
[5] = system: OVCAR-5 ovarian
[6] = system: NCI-H522 lung
[7] = system: BT-549 breast
[8] = system: T-47D breast
[9] = system: MOLT-4 leukemia
[10] = system: SK-MEL-28 melanoma
[11] = system: HOP-62 NSCLC

| SMILES | TGI [1] [µM] | TGI [2] [µM] | TGI [3] [µM] | TGI [4] [µM] | TGI [5] [µM] | TGI [6] [µM] | TGI [7] [µM] | TGI [8] [µM] | TGI [9] [µM] | TGI [10] [µM] | TGI [11] [µM] |
| --- | --- | --- | --- | --- | --- | --- | --- | --- | --- | --- | --- |
| Nc1ccc2nc3c(nc2c1)C(=O)c1ccccc1-3 | > 100 | > 100 | > 100 | > 100 | > 100 | > 100 | > 100 | > 100 | > 100 | > 100 | > 100 |
| O=[N+]([O-])c1ccc(-c2cc(O)c3nc4ccccc4n3c2)cc1 | > 100 | > 100 | > 100 | > 100 | > 100 | > 100 | > 100 | > 100 | > 100 | > 100 | > 94 |
| Cc1ccc(/C=N/n2c(Cc3ccccc3)n[nH]c2=O)cc1 | > 100 | > 100 | > 100 | > 100 | > 100 | > 100 | > 100 | > 100 | > 100 | > 100 | > 100 |
| O=[N+]([O-])c1ccc2nc(Cl)n[n+]([O-])c2c1 | 49.1 | 24.9 | 29.3 | 35.5 | 31.3 | 25.8 | 29.7 | 47.3 | 3.34 | 34 | 30.9 |
| CN(C)CCCC1c2ccccc2Oc2ccc(C(F)(F)F)cc21 (configuration not stated) | 18.9 | 15.2 | 26.5 | 33.7 | 29.2 | 29.4 | 28.2 | 30.5 | 22.7 | 15.7 | 31 |
| CCOC(=O)CCC(NC(=O)Cc1ccc(Nc2nc3ccccc3nc2-c2cccs2)cc1)C(=O)OCC (configuration not stated) | > 100 | > 100 | > 100 | > 100 | > 100 | > 100 | > 100 | 66.9 | > 100 | > 100 | > 100 |
| CCCCCCCCCCCCCCCCCCNc1ccn(C2OC(COP(=O)(O)OCC3OC(n4cc(C)c(=O)[nH]c4=O)CC3F)C(O)C2O)c(=O)n1 (configuration not stated) | > 55 | 38.9 | 27.8 | 12.3 | 6.48 | 9.04 | 11 | 44.2 | 15.4 | 17.6 | 33.1 |
| CC(=O)OCC(OC(C)=O)C(OC(C)=O)C(/C=N\Nc1nc2ccccc2c(=O)[nH]1)=N\Nc1nc2ccccc2c(=O)[nH]1 (configuration not stated) | > 100 | > 100 | 34 | > 100 | > 100 | > 100 | > 100 | > 100 | > 100 | > 100 | > 100 |
| O=C1c2cccnc2S(=O)(=O)N1c1ccc(Oc2ccccc2)cc1 | > 100 | > 100 | > 100 | > 100 | > 100 | > 100 | > 100 | > 100 | > 100 | > 100 | > 100 |
| Cc1ccc(S(=O)(=O)CN2C(=O)C(c3ccccc3)(c3ccccc3)C23OC(c2ccc(Cl)cc2)=CC3=O)cc1 (configuration not stated) | > 10 | > 10 | > 10 | > 10 | > 10 | > 10 | > 10 | > 10 | > 10 | > 10 | > 10 |
| O=C(O)CSCc1cc2c(O)c(c1)Cc1cc(CSCC(=O)O)cc(c1O)Cc1cc(CSCC(=O)O)cc(c1O)Cc1cc(CSCC(=O)O)cc(c1O)C2 | > 100 | > 100 | > 100 | > 100 | > 100 | > 100 | > 100 | > 100 | > 100 | > 100 | > 100 |
| S=C(NNC1=NCCCCN1)Nc1ccc(Cl)cc1 | > 100 | > 100 | 43.9 | > 100 | > 100 | 42.3 | > 100 | > 100 | 47.1 | > 100 | 31.7 |
| COC(=O)c1c(C)cccc1C1CN=NC12Cc1ccccc1C2=O (configuration not stated) | > 100 | > 100 | > 91.3 | > 100 | > 100 | > 100 | > 100 | > 100 | > 100 | > 100 | > 100 |
| OCc1cc2c(ccc3sc4ccc5sc6ccc7ncccc7c6c5c4c32)s1 | 39.7 | 23.9 | 37.2 | > 100 | 33 | 27.6 | 38.6 | 24.9 | 48.4 | > 100 | 28.6 |
| CC(C)(C)c1cc(-c2cc(C(C)(C)C)[nH]n2)n[nH]1 | > 100 | > 100 | > 100 | > 100 | > 100 | > 100 | > 100 | > 100 | > 100 | > 100 | > 100 |
| O=C1NC(=S)N/C1=C\c1cc2c(=O)c3ccccc3sc2s1 | > 100 | > 100 | > 100 | > 100 | > 100 | > 100 | > 100 | > 100 | 69.5 | > 100 | > 100 |
| O=C(c1cc2ccccc2[nH]1)N1C2CCC1CN(CCOC(c1ccc(F)cc1)c1ccc(F)cc1)CC2 (configuration not stated) | > 100 | > 100 | > 100 | > 100 | > 100 | > 100 | > 100 | > 100 | > 100 | > 100 | > 100 |
